System: KLH antibody
Test: Influence on keyhole limpet hemoeyanin (KLH) antibody level in immunized mice, serum ELISA potency assay
Format: in vivo, mouse
Settings: for KLH antibody ELISA OD value, data obtained after the third immunization (1: 1K) / KLH antibody ELISA OD value, data obtained after the fourth immunization (1: 1K) / KLH antibody ELISA OD value, data obtained after the third immunization (1: 3K) / KLH antibody ELISA OD value, data obtained after the fourth immunization (1: 3K): Balb/c mice immunized with KLH, test substance given on day 0 and day 7, x ± sd; for KLH antibody ELISA OD value, data obtained after the third immunization (1: 1K) / KLH antibody ELISA OD value, data obtained after the fourth immunization (1: 1K): serum dilution 1:1K; for KLH antibody ELISA OD value, data obtained after the third immunization (1: 1K) / KLH antibody ELISA OD value, data obtained after the third immunization (1: 3K): tail blood day 28-29; for KLH antibody ELISA OD value, data obtained after the fourth immunization (1: 1K) / KLH antibody ELISA OD value, data obtained after the fourth immunization (1: 3K): tail blood day 40-41; for KLH antibody ELISA OD value, data obtained after the third immunization (1: 3K) / KLH antibody ELISA OD value, data obtained after the fourth immunization (1: 3K): serum dilution 1:3K
Protocol: 2.4.1. Antigenic Information: Immunogen: KLH; Tested Substance: KLH
Primary immunization: On the first day, 100 ug antigen (immunogen) and Freund's complete adjuvant in the same volume were formed into a water-in-oil compound by means of mutual injection with a syringe, and then the compound was given to each of 18 mice by subcutaneous multi-point injection.
Second immunization: On the 14th day, 100 ug antigen (immunogen) and Freund's incomplete adjuvant in the same volume were formed into a water-in-oil compound by means of mutual injection with a syringe, and then the compound was given to each of 18 mice by subcutaneous multi-point injection.
Third immunization: On the 24th day, 100 ug antigen (immunogen) and Freund's incomplete adjuvant in the same volume were formed into a water-in-oil compound by means of mutual injection with a syringe, and then the compound was given to each of 18 mice by subcutaneous multi-point injection.
Test of tail blood: On the 28th-29th day, about 20 ul tail blood was collected from the tail vein, followed by 30 min RT and 5 min 5000 rpm centrifugation; then haemocyte precipitate was removed; and serum was taken for Elisa potency assay.
Fourth immunization: On the 34th day, 100 ug antigen (immunogen) and Freund's incomplete adjuvant in the same volume were formed into a water-in-oil compound by means of mutual injection with a syringe, and then the compound was given to each of 18 mice by subcutaneous multi-point injection.
Group G2 (Group IV): immunization was performed with reference to group G1; moreover, […] JK1208R (prepared in Example 1) was given by intravenous injection on the 0th day and 7th day, respectively.
Group G2 (Group IV): immunization was performed with reference to group G1; moreover, 52 μg rapamycin was given by oral administration on the 0th day and 7th day, respectively.
Test of tail blood: On the 40th-41st day, about 20 ul tail blood was collected from the tail vein, followed by 30 min RT and 5 min 5000 rpm centrifugation; then haemocyte precipitate was removed; and serum was taken for ELISA potency assay.
Coating: 10 ug antigen (tested substance) and 10 ml coating buffer (1.6 g […]+2.92 g NaHCO3+100 ml deionized water) were mixed; the solution was applied to the Elisa microplate, 100 ul per pore; the microplate was incubated for 2 h at 37° C. or kept still overnight at 4° C.
Blocking: The antigen coating buffer was sucked and removed from the coated microplate; a blocking buffer (5% dried skimmed milk and coating buffer) was directly added, 150 ul per pore; the microplate was treated for 2 h at 37° C., followed by three times of washing with de-ionized water; then the microplate was provisionally stored at 4° C.
Assay: serum and 1×PBS was mixed at a ratio of 1:1000; 150 ul diluent was added into the first pore; 100 ul 1×PBS were respectively added into each of the 2nd-8th pores; 50 ul liquid was transferred from the first pore into the second pore, followed by suction blow for 10 times; then, 50 ul liquid was transferred into the third pore, followed by suction blow for 10 times; next, 50 ul liquid was transferred into the fourth pore, followed by suction blow for 10 times; the test was done in the similar way in turn until the 7th pore, 50 ul liquid was removed from the 7th pore; the […] pore was a negative control group; the microplate was incubated for 1 h at 37° C., followed by three times of washing with de-ionized water; then a second antibody (goat-anti-mouse IgG-HRP 1:10000 1×PBS) was added, 100 ul each pore; the microplate was incubated for 30 min at 37° C., followed by three times of washing with de-ionized water; a chromogenic solution was added (according to the instructions on the reagent box), 100 ul each pore; the microplate was incubated for 10 min at 37° C. and then ended (2M sulphuric acid, 30 ul per pore). The OD value was tested with the microplate reader.

Compound	KLH antibody ELISA OD value, data obtained after the third immunization (1: 1K)	KLH antibody ELISA OD value, data obtained after the fourth immunization (1: 1K)	KLH antibody ELISA OD value, data obtained after the third immunization (1: 3K)	KLH antibody ELISA OD value, data obtained after the fourth immunization (1: 3K)	Effect on generation of the KLH antibody (after the fourth immunization)	Statistical difference from immune model group after the fourth immunization (at 1:1K and 1:3K)	Statistical difference from immune model group after the third immunization (at 1:3K)
CO[C@H]1C[C@@H]2CC[C@@H](C)[C@@](O)(O2)C(=O)C(=O)N2CCCC[C@H]2C(=O)O[C@H]([C@H](C)C[C@@H]2CC[C@@H](O)[C@H](OC)C2)CC(=O)[C@H](C)/C=C(\C)[C@@H](O)[C@@H](OC)C(=O)[C@H](C)C[C@H](C)/C=C/C=C/C=C/1C [rapamycin]	1.77 ± 0.33	2.56 ± 0.11	1.49 ± 0.38	2.40 ± 0.24			
monomethoxy polyethylene glycol-glutamic dipeptide-rapamycin [JK1208R]	1.33 ± 0.24	1.85 ± 0.32	0.86 ± 0.20	1.54 ± 0.31	could remarkably resist the generation of the KLH antibody	show remarkably difference	show remarkably difference
